In PubChem BioAssay (NCI):
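Growth conditions: 96-well plates. Treatment: test compound, 48 hours, 5 concentrations. Analysis: linear interpolation between bracketing concentrations; unreached endpoints set to highest concentration. At the GI50, growth is halved. TGI is the concentration that stops growth completely.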

What was measured:
Experiment in all cases: NCI-60 cell line screen, 48 h; in the data active = GI50 below about 0.43 µM; inactive = the rest
[1] = system: CAKI-1 renal
[2] = system: EKVX NSCLC
[3] = system: LOX IMVI melanoma
[4] = system: M14 melanoma
[5] = system: NCI-H522 lung
[6] = system: SF-539 CNS
[7] = system: SK-MEL-5 melanoma
[8] = system: SN12C renal
[9] = system: MCF7 breast
[10] = system: MDA-MB-231 breast

O=c1c(O)cc2c(O)oc3c(=O)c(O)c(O)c4c(O)oc1c2c43
36.5 µM: TGI [8]
34.1 µM: TGI [3]
> 100 µM: TGI [1] | TGI [2] | TGI [4] | TGI [5] | TGI [6] | TGI [7]

C=C1C(=O)c2cc3c(cc2C(c2cc(OC)c(OC)c(OC)c2)[C@@H]1C(=O)O)OCO3 (stereo partly drawn)
> 100 µM: TGI [1] | TGI [2] | TGI [3] | TGI [4] | TGI [5] | TGI [6] | TGI [7] | TGI [8]

C=C(COC(C)=O)CC(/C=C(\C)CC/C=C(\C)CO)OC(C)=O (stereo not drawn)
> 100 µM: TGI [2] | TGI [3] | TGI [4] | TGI [5] | TGI [6] | TGI [7] | TGI [8]

N#Cc1c(-c2ccccc2)cc(-c2cccs2)c(C#N)c1N
> 100 µM: TGI [1] | TGI [2] | TGI [3] | TGI [4] | TGI [5] | TGI [6] | TGI [7] | TGI [8]

C=C1c2[nH]c3ccccc3c2CC(C(=O)O)N1C(O)c1ccc(S(=O)(=O)O)cc1 (stereo not drawn)
> 100 µM: TGI [1] | TGI [3] | TGI [4] | TGI [5] | TGI [6] | TGI [7] | TGI [8]

O=C([O-])CCc1ccccc1.O=C([O-])CCc1ccccc1.O=C([O-])CCc1ccccc1.O=C([O-])CCc1ccccc1.[Mo+2].[Mo+2]
inactive: GI50 [1] > 100 µM | GI50 [2] > 100 µM | GI50 [3] > 100 µM | GI50 [4] > 100 µM | GI50 [6] > 100 µM | GI50 [7] > 100 µM | GI50 [8] > 100 µM
> 100 µM: TGI [1] | TGI [2] | TGI [3] | TGI [4] | TGI [6] | TGI [7] | TGI [8]

OCCCc1cnco1
> 100 µM: TGI [1] | TGI [2] | TGI [3] | TGI [4] | TGI [6] | TGI [7] | TGI [8]

CCCCCCc1cc2cc(-c3csc(/C=C/c4ccccc4)n3)c(=O)oc2cc1O
44 µM: TGI [9]
12.8 µM: TGI [3]
17.9 µM: TGI [5]
31.1 µM: TGI [10]
49.3 µM: TGI [7]
48.5 µM: TGI [1]
inactive: GI50 [1] 19 µM | GI50 [3] 3.29 µM | GI50 [9] 4.62 µM | GI50 [10] 8.82 µM | GI50 [5] 3.93 µM | GI50 [6] 10 µM | GI50 [7] 19.3 µM | GI50 [8] 2.12 µM
23 µM: TGI [6]
4.43 µM: TGI [8]

O=C(O)c1cn(C2CC2)c2cc(N3CCN(C(=O)Nc4nc(-c5ccc(Br)cc5)cs4)CC3)c(F)cc2c1=O
> 100 µM: TGI [3] | TGI [4] | TGI [9] | TGI [10] | TGI [5] | TGI [6] | TGI [8]
inactive: GI50 [3] 1.09 µM | GI50 [4] 2.24 µM | GI50 [9] 2.7 µM | GI50 [10] 3.48 µM | GI50 [5] 2.41 µM | GI50 [6] 1.56 µM | GI50 [8] 3.07 µM

NC(=S)N/N=C(\CCC(=O)Nc1ccccc1[N+](=O)[O-])CC(=O)c1ccco1
> 100 µM: TGI [1] | TGI [2] | TGI [3] | TGI [4] | TGI [5] | TGI [6] | TGI [7] | TGI [8]

C=CCC12CCC(=O)[C@@]1(C)CC=C(O)C2=O (stereo partly drawn)
> 100 µM: TGI [1] | TGI [2] | TGI [3] | TGI [4] | TGI [5] | TGI [6] | TGI [7] | TGI [8]

O=C1C(=C([O-])c2ccccc2)C(=O)c2ccccc21.O=C1C(=C([O-])c2ccccc2)C(=O)c2ccccc21.[Co+2]
inactive: GI50 [1] 57.3 µM | GI50 [2] > 100 µM | GI50 [3] 82.1 µM | GI50 [4] > 100 µM | GI50 [5] 80.6 µM | GI50 [6] > 100 µM | GI50 [7] > 100 µM | GI50 [8] > 100 µM
> 100 µM: TGI [1] | TGI [2] | TGI [3] | TGI [4] | TGI [5] | TGI [6] | TGI [7] | TGI [8]

O=C1/C(=C\c2ccccc2)CN(C(=O)c2ccccc2)C/C1=C\c1ccccc1
5.02 µM: TGI [10]
6.24 µM: TGI [6]
active: GI50 [9] 0.39 µM
4.79 µM: TGI [4]
2.89 µM: TGI [3]
4.31 µM: TGI [8]
5.27 µM: TGI [5]
inactive: GI50 [1] 2.74 µM | GI50 [3] 1.38 µM | GI50 [4] 2.1 µM | GI50 [10] 2.2 µM | GI50 [5] 2.29 µM | GI50 [6] 2.27 µM | GI50 [7] 1.64 µM | GI50 [8] 1.9 µM
3.06 µM: TGI [7]
1.69 µM: TGI [9]
11.1 µM: TGI [1]

CCc1cccc(CC)c1NC(=O)CC1SC(N)=NC1=O (stereo not drawn)
> 100 µM: TGI [2] | TGI [3] | TGI [4] | TGI [5] | TGI [6] | TGI [7] | TGI [8]

N#Cc1c2ccccc2c2nnc3ccc(C(F)(F)F)cc3n12
> 100 µM: TGI [1] | TGI [9] | TGI [10] | TGI [8]
39.8 µM: TGI [7]
inactive: GI50 [1] 43.7 µM | GI50 [3] 21.6 µM | GI50 [9] 27.6 µM | GI50 [10] 88.1 µM | GI50 [5] 17 µM | GI50 [7] 16.1 µM | GI50 [8] > 100 µM
68.1 µM: TGI [5]
94.5 µM: TGI [3]

O=c1nc(N2CCCC2)nc(N2CCCC2)s1
> 100 µM: TGI [1] | TGI [2] | TGI [3] | TGI [4] | TGI [5] | TGI [6] | TGI [7] | TGI [8]

CC(=O)CC(=O)NC=O
> 100 µM: TGI [1] | TGI [2] | TGI [4] | TGI [5] | TGI [6] | TGI [7] | TGI [8]

COC1=CC(=O)OC(/C=C(C)/C=C/C2=C(C)CCCC2(C)C)C1 (stereo not drawn)
> 100 µM: TGI [1] | TGI [2] | TGI [4] | TGI [5] | TGI [6] | TGI [7] | TGI [8]

Brc1ccc(Nc2nc3ccccc3nc2Nc2ccc(Br)cc2)cc1
inactive: GI50 [1] 0.714 µM | GI50 [3] 1.72 µM | GI50 [9] 0.527 µM | GI50 [10] 1.46 µM | GI50 [5] 0.449 µM | GI50 [6] 1.51 µM | GI50 [7] 1.56 µM | GI50 [8] 2.16 µM
3.25 µM: TGI [5]
3.11 µM: TGI [7]
3.01 µM: TGI [10]
6.5 µM: TGI [8]
3.31 µM: TGI [3]
5.41 µM: TGI [9]
6.61 µM: TGI [1]
3.56 µM: TGI [6]
